Laboratory results published in patent US20130143304A9, “LIGF-TYPE SYSTEMS FOR BIOCONVERSION OF LIGNIN-DERIVED COMPOUNDS” (priority 2010, published 2013).

B1: ligE1: N. aromaticivorans beta-etherase, glutathione S-transferase-like polypeptide, recombinantly expressed in E. coli (protein)
chain: MAANNTITFYDLALSTGATISPFVWATKYALKHKGFDLDVVPGGFTGILERTGGKTERLPAIVDDGEFVLDSWGIVEYLDAKYPDRPVLIPHESVAATLKALDNWFWNAAVGPWMFCFCQDYRDLSLPQDHEYVTHSREKMLGRKLEEVQAGREERLPKISAALEPLRAALAQHQWLGGSSPNYADYRIMGGILFTASVCKTPVLANDDPLRDWIERCLDLYGGLGRHPGLFPLFGLEQREGDPDLFNRAAGQGGIYKRNTGPESTRAETQRITEGMKK
B2: LigF2: N. aromaticivorans beta-etherase, glutathione S-transferase-like polypeptide, recombinantly expressed in E. coli (protein)
chain: MALKYYHAEPLANSLKSMVPLKEKGLAYESIYVDLHKFEQHQPWFTAINPEGQVPVLDHDGTIITHTTVINEYLEDAFPDAQPADAPLRPRDPVGAARMRYWNKFIDEHVMNYVSMHGWHRMVGVIARNIASGDFEKLLESIPLPDQRKKWATARSGFSEADLANATAKIEYALDKVEKQLGETKWLAGDTYTLADINFYSHCGAMVERMFPEMEVARRAPRLCEWRDRVAARPAVAEALKSEDRTAPGLRVWSGEVR
B3: ligE: S. paucimobilis ligE beta-etherase, positive control polypeptide (protein)
chain: MARNNTITLYDLQLESGCTISPYVWRTKYALKHKGFDIDIVPGGFTGILERTGGRSERVPVIVDDGEWVLDSWVIAEYLDEKYPDRPMLFEGPTQKNLMKFLDNWLWSTAVGPWFRCYILDYHDLSLPQDRDYVRWSREQWFLGGQRLEDVQAGREDRLPLVPPTLEPFRRILAETKWLGGDQPNFADYSALAVFLWTASVARTPPLTEDDPLRDWLDRGFDLFDGLGRHPGMNPLFGLKLREGDPEPFVRQTGPAGAGGQALNKGPQTTKMPPRVAEKAD

Test system: Escherichia coli
Assay: not given
Details: benzaldehyde derivatives; each compound alone; cited from earlier work

| Molecule | antibacterial activity against Escherichia coli |
| --- | --- |
| COc1cccc(C=O)c1O [2-hydroxy-3-methoxybenzaldehyde] | antibacterial activity |
| O=Cc1ccc(O)cc1O [2,4-dihydroxybenzaldehyde] | antibacterial activity |
| O=Cc1cc(O)ccc1O [2,5-dihydroxybenzaldehyde] | antibacterial activity |
| O=Cc1ccccc1O [2-hydroxybenzaldehyde] | antibacterial activity |
| COc1cc(O)cc(OC)c1C=O [4-hydroxy-2,6-dimethoxybenzaldehyde] | antibacterial activity |
| O=Cc1ccc(O)c(O)c1O [2,3,4-trihydroxybenzaldehyde] | antibacterial activity |
| O=Cc1c(O)cc(O)cc1O [2,4,6-trihydroxybenzaldehyde] | antibacterial activity |
| COc1ccc(O)c(C=O)c1 [2-hydroxy-5-methoxybenzaldehyde] | antibacterial activity |
| O=Cc1cccc(O)c1O [2,3-dihydroxybenzaldehyde] | antibacterial activity |

Same assay, conditions: known; each compound alone; cited from earlier work

| Molecule | antimicrobial activity against Escherichia coli |
| --- | --- |
| COc1cc(C=O)ccc1O [vanillin] | antimicrobial activity |
| COc1cc(C=O)cc(OC)c1O [syringaldehyde] | antimicrobial activity |
| O=Cc1ccc(CO)o1 [5-hydroxymethylfurfural] | antimicrobial activity |
| O=Cc1ccc(O)cc1 [4-hydroxybenzaldehyde] | antimicrobial activity |
| O=Cc1ccco1 [furfural] | antimicrobial activity |

Test system: yeast Saccharomyces cerevisiae
Assay: not given
Details: each compound alone; cited from earlier work

| Molecule | antifungal activity against the yeast Saccharomyces cerevisiae |
| --- | --- |
| O=C(O)C=Cc1ccccc1 [cinnamic acid] | significant antifungal activities |
| O=C(O)/C=C/c1ccc(O)cc1 [p-coumaric acid] | significant antifungal activities |
| O=C(O)/C=C/c1ccccc1O [o-coumaric acid] | significant antifungal activities |
| COc1cc(CCC(C)=O)ccc1O [vanillylacetone] | significant antifungal activities |
| COc1ccc(C=O)cc1OC [Veratraldehyde] | significant antifungal activities |
| COc1cc(C(=O)O)ccc1O [vanillic acid] | significant antifungal activities |
| O=C(O)/C=C/c1cccc(O)c1 [m-coumaric acid] | significant antifungal activities |

Test system: not listed separately
Assay: in vitro biochemical assay for beta-etherase activity on fluorescent substrate MUAV (clarified E. coli cell extracts, 4MU fluorescence)
Details: MUAV substrate
Protocol: This example describes a method for gene expression in E. coli, as well as beta-etherase biochemical assays. Expression of known and putative beta-etherase genes was performed using 5 ml cultures of the recombinant E. coli strains described herein in Luria Broth medium by induction of gene expression using isopropylthiogalactoside (IPTG) to a final concentration of 0.1 mM. Following induction, and cell harvest, the cells were disrupted using either sonication or the BPER (Invitrogen) cell lysis system.
In vitro reactions were performed in a total volume of 200 ul and contained: 25 mM TrisHCl pH 7.5; 0.5 mM dithiothreitol; 1 mM glutathione; 0.05 mM or 0.1 mM MUAV; 10 ul of clarified cell extract used to initiate the reactions. Following incubation for 2.5 hours at room temperature, a 50 ul sample of the reactions was terminated using 150 uL of 300 mM glycine/NaOH buffer pH 9. The formation of 4 methylumbelliferone (4MU) upon hydrolysis of the aryl ether bond was monitored by the increase in fluorescence at λex=360 nm and λem=450 nm using a Spectramax UV/visible/fluorescent spectrophotometer.
The total protein concentrations of the cell lysates were determined using the BCA reagent system for protein quantification (Pierce). […]

| Molecule | fold more efficient than S. paucimobilis ligE beta-etherase |
| --- | --- |
| B1 | approximately 75 fold |

Same assay, conditions: MUAV substrate; concentration not given

| Molecule | total activity (beta-etherase) [rfu/ug] |
| --- | --- |
| B2 | 1206 |

Same assay, conditions: reactions containing 0.1 mM MUAV substrate; E. coli cell extracts expressing the protein

| Molecule | total activity (beta-etherase) [rfu/ug] |
| --- | --- |
| B1 | 529 |
| B3 | 7 |
